Measurements taken from ChEMBL document CHEMBL1147343, “Isolation and identification of an antifungal naphthopyran derivative from Rhinacanthus nasutus” (1993).
In brackets after ≈: the same amount, converted by molar mass.

Tested on: Pyricularia oryzae
Assay: Antifungal activity against Pyricularia oryzae assessed as inhibition of spore germination
Format: functional
Settings: read-out: ED50 (the source's name)

`CC1(C)COC2=C(C1)C(=O)c1ccccc1C2=O` showed an EC50 of 0.4 mg/L (≈ 1.65 µM).
